{"source": "patent US20260027125A1", "about": "“AN ANTIBACTERIAL PARENTERAL FORMULATION AND METHODS THEREOF” (BUGWORKS RESEARCH INDIA PVT. LTD., priority 2022, published 2026)", "key": {"[1]": {"test_system": "Bacteroides fragilis (anaerobe)", "assay": "microbe, parasite or virus in culture", "assay_type": "cell-based", "conditions": "Bacteroides fragilis"}, "[2]": {"test_system": "Ureaplasma species (atypical)", "assay": "microbe, parasite or virus in culture", "assay_type": "cell-based"}, "Staphylococcus aureus": {"test_system": "Staphylococcus aureus", "assay": "microbe, parasite or virus in culture", "assay_type": "cell-based"}, "Enterococcus faecalis": {"test_system": "Enterococcus faecalis", "assay": "microbe, parasite or virus in culture", "assay_type": "cell-based"}, "Streptococcus pyogenes": {"test_system": "Streptococcus pyogenes", "assay": "microbe, parasite or virus in culture", "assay_type": "cell-based"}, "Enterococcus faecium": {"test_system": "Enterococcus faecium", "assay": "microbe, parasite or virus in culture", "assay_type": "cell-based"}, "[3]": {"test_system": "Clostridium difficile (anaerobe)", "assay": "microbe, parasite or virus in culture", "assay_type": "cell-based"}, "[4]": {"test_system": "Burkholderia pseudomallei", "assay": "microbe, parasite or virus in culture", "assay_type": "cell-based"}, "[5]": {"assay": "Solubility enhancement trials", "assay_type": "physicochemical", "experimental": "All observations were recorded once the solution temperature reached to 25° C.-30° C."}, "[6]": {"assay": "Photostability study (ICH-Q1B)", "assay_type": "physicochemical", "conditions": "ICH-Q1B illumination"}, "A. baumannii ATCC 17978": {"test_system": "A. baumannii ATCC 17978", "assay": "Neutropenic murine model of thigh infection", "assay_type": "in vivo, Acinetobacter baumannii", "conditions": "neutropenic mice"}, "Neisseria gonorrhoea": {"test_system": "Neisseria gonorrhoea", "assay": "microbe, parasite or virus in culture"}}, "note": "Counter-ions that a name gives are not always drawn.", "data": [{"smiles": "Cn1c(=O)ccc2ccc(F)c(CCNC[C@H]3CN(c4cnc5c(n4)NC(=O)CO5)C(=O)O3)c21", "note": "[compound of Formula (I) formate salt, (S)-6-(5-(((2-(7-fluoro-1-methyl-2-oxo-1,2-dihydroquinolin-8-yl)ethyl)amino)methyl)-2-oxooxazolidin-3-yl)-2H-pyrazino[2,3-b][1,4]oxazin-3(4H)-one formate]", "values": [{"measurement": "MIC50", "setting": "[1]", "value": 0.06, "unit": "µg/mL"}, {"measurement": "MIC90", "setting": "[1]", "value": 0.25, "unit": "µg/mL"}, {"measurement": "MIC Range, high end", "setting": "[2]", "value": 0.03, "unit": "µg/mL"}, {"measurement": "MIC Range, low end", "setting": "[2]", "value": "≤0.015", "unit": "µg/mL"}, {"measurement": "MIC50", "setting": "[2]; Ureaplasma", "value": "≤ 0.015", "unit": "µg/mL"}, {"measurement": "MIC90", "setting": "[2]; Ureaplasma", "value": "≤ 0.015", "unit": "µg/mL"}, {"measurement": "MIC Range, high end", "setting": "Staphylococcus aureus", "value": 0.5, "unit": "µg/mL"}, {"measurement": "MIC Range, low end", "setting": "Staphylococcus aureus", "value": "<0.015", "unit": "µg/mL"}, {"measurement": "MIC50", "setting": "Staphylococcus aureus; Staphylococcus aureus", "value": 0.03, "unit": "µg/mL"}, {"measurement": "MIC90", "setting": "Staphylococcus aureus; Staphylococcus aureus", "value": 0.03, "unit": "µg/mL"}, {"measurement": "MIC Range, high end", "setting": "Enterococcus faecalis", "value": 0.25, "unit": "µg/mL"}, {"measurement": "MIC Range, low end", "setting": "Enterococcus faecalis", "value": "<0.015", "unit": "µg/mL"}, {"measurement": "MIC50", "setting": "Enterococcus faecalis; Enterococcus faecalis", "value": 0.03, "unit": "µg/mL"}, {"measurement": "MIC90", "setting": "Enterococcus faecalis; Enterococcus faecalis", "value": 0.06, "unit": "µg/mL"}, {"measurement": "MIC Range, high end", "setting": "Streptococcus pyogenes", "value": 0.06, "unit": "µg/mL"}, {"measurement": "MIC Range, low end", "setting": "Streptococcus pyogenes", "value": 0.03, "unit": "µg/mL"}, {"measurement": "MIC50", "setting": "Streptococcus pyogenes; Streptococcus pyogenes", "value": 0.03, "unit": "µg/mL"}, {"measurement": "MIC90", "setting": "Streptococcus pyogenes; Streptococcus pyogenes", "value": 0.03, "unit": "µg/mL"}, {"measurement": "MIC Range, high end", "setting": "Enterococcus faecium", "value": 0.5, "unit": "µg/mL"}, {"measurement": "MIC Range, low end", "setting": "Enterococcus faecium", "value": "<0.015", "unit": "µg/mL"}, {"measurement": "MIC50", "setting": "Enterococcus faecium; Enterococcus faecium", "value": 0.03, "unit": "µg/mL"}, {"measurement": "MIC90", "setting": "Enterococcus faecium; Enterococcus faecium", "value": 0.12, "unit": "µg/mL"}, {"measurement": "MIC Range, high end", "setting": "[3]", "value": 0.06, "unit": "µg/mL"}, {"measurement": "MIC Range, low end", "setting": "[3]", "value": "<0.015", "unit": "µg/mL"}, {"measurement": "MIC50", "setting": "[3]; Clostridioides difficile", "value": "< 0.015", "unit": "µg/mL"}, {"measurement": "MIC90", "setting": "[3]; Clostridioides difficile", "value": 0.03, "unit": "µg/mL"}, {"measurement": "MIC50", "setting": "[4]", "value": 0.25, "unit": "µg/mL"}, {"measurement": "MIC90", "setting": "[4]", "value": 0.5, "unit": "µg/mL"}, {"measurement": "MIC Range, high end", "setting": "[4]; N 40 strains", "value": 4, "unit": "µg/mL"}, {"measurement": "MIC Range, low end", "setting": "[4]; N 40 strains", "value": "≤0.015", "unit": "µg/mL"}, {"measurement": "pH", "setting": "[5]; Sr. No. 2: 7.5% Citric acid solution", "value": 1.96}, {"measurement": "pH", "setting": "[5]; Sr. No. 6: 7.5% Citric acid + 20% HPβ-CD", "value": 1.94}, {"measurement": "pH", "setting": "[5]; Sr. No. 9: 10% Ascorbic acid + 1% PVP K-12 + 20% HPβ-CD", "value": 2.9}, {"measurement": "pH", "setting": "[5]; Sr. No. 10: 5% Ascorbic acid + 2% PVP K-12 + 20% HPβ-CD", "value": 3.19}, {"measurement": "pH", "setting": "[5]; Sr. No. 11: 7.5% Ascorbic acid + 2% PVP K-12 + 20% HPβ-CD", "value": 3.08}, {"measurement": "pH", "setting": "[5]; Sr. No. 12: 7.5% Ascorbic acid + 1% PVP K-12 + 20% HPβ-CD", "value": 3.07}, {"measurement": "pH", "setting": "[5]; Sr. No. 13: 5% Ascorbic acid + […] Lactic acid + 1% PVP K-12 + 20% HPβ-CD", "value": 2.88}, {"measurement": "pH", "setting": "[5]; Sr. No. 14: 5% Ascorbic acid + 1% PVP K-12 + 30% HPβ-CD", "value": 3.25}, {"measurement": "pH", "setting": "[5]; Sr. No. 15: 7.5% Ascorbic acid + 1% PVP K-12 + 30% HPβ-CD", "value": 3.15}, {"measurement": "pH", "setting": "[5]; Sr. No. 17: 10% Ascorbic acid + 1% PVP K-12 + 30% HPβ-CD", "value": 3.03}, {"measurement": "pH", "setting": "[5]; Sr. No. 18: 7% Ascorbic acid + […] Acetic acid + 1% PVP K-12 + 30% HPβ-CD", "value": 3.06}, {"measurement": "pH", "setting": "[5]; Sr. No. 19: 7% Ascorbic acid + 0.9% Glycine + 30% HPβ-CD", "value": 3.25}, {"measurement": "pH", "setting": "[5]; Sr. No. 20: 7% Ascorbic acid + […] Acetic acid + 0.9% Glycine + 30% HPβ-CD", "value": 3.16}, {"measurement": "pH", "setting": "[5]; Sr. No. 21: 7% Ascorbic acid + […] lactic acid + 1% PVP K-12 + 30% HPβ-CD", "value": 2.91}, {"measurement": "pH", "setting": "[5]; Sr. No. 22: 6% Ascorbic acid + […] Acetic acid + […] lactic acid + 1% PVP K-12 + 30% HPβ-CD", "value": 2.84}, {"measurement": "pH", "setting": "[5]; Sr. No. 23: Acetate Buffer (200 mM, pH 3.0) + 6% Ascorbic acid + […] lactic acid + 1% PVP K-12 + 30% HPβ-CD", "value": 2.78}, {"measurement": "pH", "setting": "[5]; Sr. No. 24: 5% Ascorbic acid + […] Acetic acid + […] lactic acid + 1% PVP K-12 + 30% HPβ-CD, pH adjusted by L-Arginine Solution", "value": 3.73}, {"measurement": "sensitivity to light", "setting": "[6]", "value": "sensitive to light"}, {"measurement": "effect on bacterial burden in thigh", "setting": "A. baumannii ATCC 17978; SC 10 mg/kg q8h, 26 hours", "value": "effective at reducing"}, {"measurement": "effect on bacterial burden in thigh", "setting": "A. baumannii ATCC 17978; SC 30 mg/kg q8h, 26 hours", "value": "effective at reducing"}, {"measurement": "effect on bacterial burden in thigh", "setting": "A. baumannii ATCC 17978; SC 60 mg/kg q8h, 26 hours", "value": "either a bacteriostatic or killing effect"}, {"measurement": "effect on bacterial burden in thigh", "setting": "A. baumannii ATCC 17978; SC 90 mg/kg q8h, 26 hours", "value": "logarithmic killing"}, {"measurement": "effect on bacterial burden in thigh", "setting": "A. baumannii ATCC 17978; SC 120 mg/kg q8h, 26 hours", "value": "logarithmic killing"}, {"measurement": "efficacy compared with polymyxin B (SC 25 mg/kg q8h)", "setting": "A. baumannii ATCC 17978; doses ≥90 mg/kg q8h SC", "value": "more effective"}, {"measurement": "efficacy compared with subcutaneous meropenem (200 mg/kg q8h)", "setting": "A. baumannii ATCC 17978; doses ≥90 mg/kg q8h SC", "value": "more effective"}, {"measurement": "effect on bacterial burden in thigh", "setting": "A. baumannii ATCC 17978; ≥60 mg/kg q8h SC, across three replicate studies", "value": "logarithmic killing"}, {"measurement": "MIC50", "setting": "Neisseria gonorrhoea", "value": "≤ 0.015", "unit": "µg/mL"}, {"measurement": "MIC90", "setting": "Neisseria gonorrhoea", "value": "≤ 0.015", "unit": "µg/mL"}]}]}
